These results are taken from patent publication US20150017093A1, “RADIOLABELED BILE ACIDS AND BILE ACID DERIVATIVES” (Aarhus Universitet, priority 2012, published 2015).

“Also recorded” adds a separate entry of the source.

The conditions of series [1]: cited from earlier work.
The nature of series [2]: Plasma free fraction by ultrafiltration. The class given is in vitro ADME. Particulars: female, Danish Landrace and Yorkshire cross-breed, pig. The method, then:
The plasma free fraction of ^11C—CSar was determined in plasma samples collected prior to tracer administration in all three pigs; moreover, plasma was collected 10 seconds after end of cholyltaurine infusion in Pig 1, i.e. before the ^11C—CSar administration. The plasma samples were mixed with aliquots of ^11C—CSar, pipetted into ultrafiltration units (Pall Nanosep Centrifugal Device, Cut-off 30,000 D, Sigma-Aldrich) and centrifuged at room temperature (10 min at 12,000 rpm). Radioactivity in plasma and ultrafiltrates were counted in the well counter. Filter retention of the tracer was determined using sodium phosphate buffer solution (35 mM; pH 7.2). The free fraction was calculated as the ratio of radioactivity concentration in the ultrafiltrate corrected for filter retention to the total radioactivity concentration in plasma.

The nature of series [3]: Dynamic PET/CT with arterial blood sampling after intravenous ^11C—CSar in pigs. The class given is in vivo, pig. The method, then:
Three pigs (3-month old female Danish Landrace and Yorkshire cross-breed; body weight 35-40 kg) were fasted for 18 h with free access to water. Each animal was premedicated with midazolam and s-ketamine, anaesthetized with a mixture of midazolam, s-ketamine and propofol, and mechanically ventilated as previously described (Sørensen M. Munk O L, Mortensen F V, et al. Hepatic uptake and metabolism of galactose can be quantified in vivo by 2-[^18F]fluoro-2-deoxy-galactose positron emission tomography. Am J Physiol Gastrointest Liver Physiol. 2008; 295:G27-G36). The animal was placed on a thermostatically-controlled heating blanket, keeping the rectal temperature 38.5-39.5° C. By adjusting the mechanical respiration, arterial blood pCO2, pO2, and pH were kept between 5.3-7.2 kPa, 12-25 kPa, and 7.35-7.45, respectively. Blood glucose was 5.0-6.7 mM. Catheters (Cordis) were inserted into the femoral vein and artery for intravenous administrations and blood sampling, respectively. After completion of the experiment, the animal was euthanized with an overdose of pentobarbital (100 mg/kg).
For PET/CT studies, the pig was placed on the back in a Siemens Biograph 64 Truepoint PET/CT camera with a 21 cm transaxial PET field-of-view. A CT scan (250 effective mAs with CAREDose4D, 120 kV, pitch 1.0, slice thickness 2.0 mm) was performed for definition of anatomical structures and attenuation correction of the PET recordings.
During the dynamic PET recordings of Pig 1 and 2, blood samples (0.5 mL) were collected from the femoral artery at 12×5, 6×10, 6×30, 5×60, 8×600 seconds. The radioactivity concentrations in the samples were measured in a well counter (Packard Biosciences) that was cross-calibrated to the PET camera. Additional blood samples were collected 2, 5, 10, 20, 40, 60, and 90 min after tracer administration for determination of ^11C-metabolites in plasma.

Series [4] relates to transhepatic transport of ^11C—CSar. Particulars: Pig 1.
Experimental: Pigs 1 and 2 underwent 90-min dynamic PET/CT recordings (list-mode) using intravenous administration of 400 MBq ^11C—CSar. […] In Pig 2, a second ^11C—CSar administration was given to determine the biodistribution of the tracer by means of whole-body PET/CT recordings. In both pigs, at least 6 half-lives of the ^11C-isotope (half-live: 20.4 min) were allowed to pass between tracer administrations.
The decay-corrected dynamic PET data were reconstructed using the iterative TrueX algorithm (3 iterations, 21 subsets) and post-filtered using a 3 mm Gaussian filter yielding 3D-images of 168×168×109 voxels. Time-activity curves (TACs) were generated from volumes of interest (VOIs) drawn in liver tissue, intrahepatic bile ducts, and choledochus using fused PET/CT images.
A short description of series [5]: Dynamic ^11C—CSar PET/CT in patients with cholestasis. It is filed as in vivo, human. Particulars: patient with BRIC-1 cholestasis; intravenous infusion. From the text:
Two dynamic PET/CT studies in humans have been performed; one in a patient with inherited cholestasis and the other in a patient with drug-induced cholestasis. FIG. 4 illustrates the findings in the patient with inherited cholestasis; a person diagnosed with BRIC-1 (benign recurrent intrahepatic cholestasis), who was examined during a cholestatic episode with severe pruritus, hyperbilirubinemia and high plasma bile acid concentrations. […] Images from the second patient show similar changes.

Series [6] in a line: Whole-body PET/CT biodistribution and dosimetry (OLINDA/EXM), Pig 2. It is filed as in vivo. Particulars: for Absorbed dose estimate / Effective dose: Pig 2 (40 kg) extrapolated to 74-kg human; for Effective dose: ICRP 60. The method, then:
For the biodistribution study, ^11C—CSar was administrated intravenously in Pig 2 followed by five whole-body PET scans with one minute between scans and with progressive increase of scan durations per bed-position, i.e. 1, 2, 3, 4 and 5 min, respectively. […] Other source organs (gallbladder, stomach, small intestines, and kidneys) had non-uniform radioactivity distribution and for these organs, the total activity was estimated using a large VOI encompassing all accumulated radioactivity. For each source organ, the time course of the non-decay-corrected total radioactivity was generated. Data were extrapolated from pig (40 kg) to human (74 kg) and recalculated into time courses of fractions of injected dose (% ID). Residence times were computed as the trapezoidal sum of the time course of % ID assuming that the radioactivity decayed only by physical decay after the last scan. Residence time for the rest of the body was calculated as the total body residence time (without voiding) minus the sum of the residence times from the source organs. The residence times were entered into OLINDA/EXM 1.0 (Stabin M G, Sparks R B, Crowe E. OLINDA/EXM: The second-generation personal computer software for internal dose assessment in nuclear medicine. J Nucl Med. 2005; 46:1023-1027) to compute absorbed doses using the male reference phantom and to obtain effective dose values according to ICRP 60.

Series [7] is described as follows: Stability of the tracer in its final formulation. The class given is physicochemical. Particulars: up to 2.5 h after the end of the synthesis. As for the experimental part:
The three-step radiosynthesis provided 0.56-1.09 GBq of ^11C—CSar (5) with a radiochemical yield of 13±3% (mean±SD; n=7, decay-corrected) and with radiochemical purity >99% within 40 min. The radiochemical yield of the intermediate ^11C-cholylsarcosine methyl ester 4 was approximately 20% and the deprotection proceeded with full conversion to give ^11C—CSar exclusively.

The mark [8] stands for this setting: cholyltaurine pretreatment vs. without.

Regarding `C[C@H](CCC(=O)N(C)CC(=O)O)[C@H]1CC[C@H]2[C@@H]3[C@H](O)C[C@@H]4C[C@H](O)CC[C@]4(C)[C@H]3C[C@H](O)[C@]12C` [CSar, N-methyl-cholylglycine], the toxicity to humans result in series [1] is recorded as “non-toxic”. The “biotransformation during enterohepatic circulation” value in series [1] (humans) was “without hepatic or intestinal biotransformation”.

The term fraction unbound denotes the share of the substance not bound to proteins or other matrix. A higher fraction unbound goes with much free substance. Regarding `C[C@H](CCC(=O)N([11CH3])CC(=O)O)[C@H]1CC[C@H]2[C@@H]3[C@H](O)C[C@@H]4C[C@H](O)CC[C@]4(C)[C@H]3C[C@H](O)[C@]12C` [^11C—CSar, N-(3α,7α,12α-Trihydroxy-24-oxocholan-24-yl)-N—[^11C]methyl-glycine], the fraction unbound in series [2] (plasma collected after administration of cholyltaurine (Pig 1)) came out at 1; in series [2] (plasma collected before tracer administration, n=3), 0.18 ± 0.02. For the same compound, the “time to peak of liver TAC” value in series [3] (Pig 1 and 2, after intravenous tracer) was at most 3 min. Moreover, in series [3] (Pig 1 and 2, intravenous, dynamic PET/CT), the “uptake into liver tissue” value was “rapid uptake”. The “time of appearance of radioactivity in the intrahepatic bile ducts” value in series [3] (after ^11C—CSar administration) is given as “approximately one”. Further, in series [3] (after administration of the tracer), the “time at which radioactivity in liver tissue and bile ducts increased again (enterohepatic circulation)” value is “about 75 min”. In series [3] (after tracer administration), the “time to peak radioactivity concentration in the choledochus” value lay within 4 to 6 min. Besides, the “time for liver TAC to decrease to very low concentrations” value in series [3] (pig, in vivo) lay in the range of 30 to 40 min. In series [3] (relative to appearance in intrahepatic bile ducts), the “time of appearance of radioactivity in the choledochus” value is listed as “one minute later”. Besides, in series [3] (relative to arterial TAC), the “peak radioactivity concentration of liver TAC” value was “comparable to the peak concentration of the arterial TAC”. The “decrease of liver tissue TAC with time” value in series [4] (setting [8]) is on record as “significantly slower”. Further, the “rate of increase of TAC in the choledochus” value in series [4] (setting [8]) is recorded as “much slower rate”. In addition, the “maximum value of choledochus TAC relative to that without pretreatment” value in series [4] (pretreatment with cholyltaurine) stood at 2%. Moreover, the “maximum radioactivity concentration of liver tissue TAC compared to studies without cholyltaurine” value in series [4] (pretreatment with cholyltaurine 286 mg/kg i.v.) was “approximately 40%”. Also, the “distribution of tracer on PET/CT 5 min after start of infusion” value in series [5] was “still observed in the liver; also recorded: still ^11C—CSar in the liver”. Further, in series [5], the “distribution of tracer on PET/CT 25 min after start of infusion” value is “accumulated in the liver and intrahepatic bile ducts”. Further, the Absorbed dose estimate is 2.88 μGy/MBq in series [6] (Adrenals); 2.87 μGy/MBq in series [6] (Bone surface); 1.57 μGy/MBq in series [6] (Brain); 1.66 μGy/MBq in series [6] (Breasts); 59.40 μGy/MBq in series [6] (Gallbladder wall); 2.33 μGy/MBq in series [6] (Heart wall). Also, the Absorbed dose estimate in series [6] (Kidneys) is 2.34 μGy/MBq; in series [6] (Liver), 10.80 μGy/MBq; in series [6] (Lower large intestine wall), 3.91 μGy/MBq; in series [6] (Lungs) it was 2.06 μGy/MBq; in series [6] (Muscle), 2.23 μGy/MBq; in series [6] (Ovaries), 4.97 μGy/MBq. Further, the Absorbed dose estimate in series [6] (Pancreas) was 3.36 μGy/MBq; in series [6] (Red marrow), 2.34 μGy/MBq; in series [6] (Skin), 1.61 μGy/MBq; in series [6] (Small intestine), 39.30 μGy/MBq; in series [6] (Spleen), 2.37 μGy/MBq; in series [6] (Stomach wall) it was 3.92 μGy/MBq. Also, the Absorbed dose estimate is given as 1.82 μGy/MBq in series [6] (Testes); 1.88 μGy/MBq in series [6] (Thymus); 1.78 μGy/MBq in series [6] (Thyroid); 2.83 μGy/MBq in series [6] (Total body); 7.07 μGy/MBq in series [6] (Upper large intestine wall); 2.67 μGy/MBq in series [6] (Urinary bladder wall). Also, in series [6] (Uterus), the Absorbed dose estimate is recorded as 4.62 μGy/MBq. Besides, the Effective dose was 4.4 μSv/MBq in series [6] and 4.40 μSv/MBq in series [6] (listed as 11C-CSar). Moreover, the “organs with high accumulation of tracer relative to surrounding tissue” value in series [6] (Pig 2, whole-body PET scans) is “liver, gallbladder, stomach, and small intestines”. Also, the “radioactivity in other organs, including the urinary bladder” value in series [6] (Pig 2, whole-body PET scans) is on record as “Virtually no radioactivity was detected”. In series [7], the “alterations in chemical or radiochemical purity” value was “no alterations”.

As to cholyltaurine [reference compound], the “effect on hepatic uptake and biliary excretion of ^11C—CSar” value in series [4] (286 mg/kg intravenous 50-second infusion before tracer) was “markedly inhibited”.
